In assay [1] the target is CDK9/CycT1 (Homo sapiens, UniProt P50750). As to the kind of experiment: ADP-Glo kinase assay on CDK enzymatic activity, CDK9/CycT1. The following applies: 10 concentrations from 10 μM, 4-fold, 60 min room temperature. In kind it is biochemical. The method, boiled down: (§1)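 Kinase and compound are mixed and held 10 min at room temperature before substrate peptide and ATP start a 60 min reaction. Remaining ATP is depleted with ADP-Glo reagent (40 min), detection reagent is added (40 min), and luminescence gives inhibition rates across ten concentrations from 10 μM, fitted to IC50.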
Sequence of CDK9/CycT1 (P50750 whole entry): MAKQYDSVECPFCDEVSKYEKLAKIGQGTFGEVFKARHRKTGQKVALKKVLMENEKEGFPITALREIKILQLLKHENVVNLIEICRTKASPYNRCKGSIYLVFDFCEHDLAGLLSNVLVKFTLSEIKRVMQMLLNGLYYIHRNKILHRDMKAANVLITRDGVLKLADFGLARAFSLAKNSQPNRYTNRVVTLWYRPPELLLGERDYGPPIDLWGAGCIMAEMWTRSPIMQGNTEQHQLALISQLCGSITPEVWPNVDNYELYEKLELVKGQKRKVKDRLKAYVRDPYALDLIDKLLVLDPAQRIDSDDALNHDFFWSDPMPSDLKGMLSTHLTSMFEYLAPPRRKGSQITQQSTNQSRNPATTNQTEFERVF
Sequence of CDK9/CycT1 (O60563 whole entry partner): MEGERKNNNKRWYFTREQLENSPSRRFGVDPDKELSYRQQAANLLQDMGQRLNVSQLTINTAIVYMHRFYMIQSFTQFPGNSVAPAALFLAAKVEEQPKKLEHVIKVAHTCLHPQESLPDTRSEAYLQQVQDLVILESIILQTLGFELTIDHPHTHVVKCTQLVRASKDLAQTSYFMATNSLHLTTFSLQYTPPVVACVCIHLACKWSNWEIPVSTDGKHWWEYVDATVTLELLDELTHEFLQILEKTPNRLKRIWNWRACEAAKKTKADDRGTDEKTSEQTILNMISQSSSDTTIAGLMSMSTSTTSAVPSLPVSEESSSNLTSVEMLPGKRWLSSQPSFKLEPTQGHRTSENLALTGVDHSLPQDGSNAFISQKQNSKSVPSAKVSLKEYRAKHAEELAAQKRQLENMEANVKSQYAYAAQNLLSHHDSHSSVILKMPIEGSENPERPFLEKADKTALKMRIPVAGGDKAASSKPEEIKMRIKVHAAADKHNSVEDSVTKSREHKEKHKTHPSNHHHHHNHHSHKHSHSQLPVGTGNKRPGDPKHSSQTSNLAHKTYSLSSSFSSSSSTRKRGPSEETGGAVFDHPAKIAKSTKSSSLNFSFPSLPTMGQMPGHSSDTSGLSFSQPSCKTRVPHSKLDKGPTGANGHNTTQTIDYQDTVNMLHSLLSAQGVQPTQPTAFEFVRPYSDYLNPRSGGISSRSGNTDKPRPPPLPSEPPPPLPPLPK
In general terms: In ADP-Glo the light output rises with the ADP produced.

Assay [2] has as its system MV-4-11 (human myelomonocytic leukemia cells). As to the kind of experiment: CCK-8 cell proliferation assay, MV-4-11. To be noted: MV4-11, 24 h incubation, 11 concentrations from 5000 nM, 3-fold, read-out: MV-4-11 cell proliferation IC50 (class). The class given is cell-based. Here is the method: Test samples: the compounds of the present invention, having structures shown above.
MV-4-11 (human myelomonocytic leukemia cells) and NCI-H929 (human myeloma cells).
The compounds were dissolved in DMSO and diluted 3-fold in the 96-well plate to obtain stock solutions with 11 concentration gradients. Each cell was inoculated into a 96-well plate, and the diluted compound stock solution was added to the 96-well plate to obtain a series of 11 concentration gradients of compound solutions with final concentrations of 5000 nM starting and 3-fold gradient decreasing, wherein the final DMSO content was […]. There was a medium containing 1‰ DMSO in the negative control well. The treated cells were incubated at 37° C. with 5% CO2 and 95% humidity, wherein MV-4-11 were incubated for 24 h and NCI-H929 for 72 h. After incubation was completed, each well was added with 10 μL of CCK-8 reagent, incubated for 1-3 h at room temperature and placed in the microplate reader, and the absorbance was read at 450 nm.
The inhibition rate was calculated according to the following formula: […]
ODcmpd: compound absorbance; ODpositive: average value of the absorbance of positive control without compound; ODvehicle: average value of the absorbance of solvent vehicle control.
IC50 values were fitted using GraphPad 7.0 based on inhibition rates of compounds at different concentrations.
For orientation: Formazan colour is commonly taken as a measure of viable cells.

Assay [3] addresses CDK1/CycE1 (Homo sapiens, UniProt P06493). As to the kind of experiment: ADP-Glo kinase assay on CDK enzymatic activity, CDK1/CycE1. In kind it is biochemical. To be noted: ADP-Glo; 10 concentrations from 10 μM, 4-fold; 60 min room temperature; read-out: CDK1/CycE1/nM (IC50). In short, it runs like this: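 Compounds in 10-point 4-fold dilutions from 10 μM final, preincubated 10 min with kinase, then substrate/ATP added; 60 min reaction at room temperature. ADP-Glo luminescence read.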

The target of assay [4] is CDK2/CycA2 (Homo sapiens, UniProt P24941). The assay can be described thus: ADP-Glo kinase assay on CDK enzymatic activity, CDK2/CycA2. The class given is biochemical. To be noted: 10 concentrations from 10 μM, 4-fold, 60 min room temperature. In short, it runs like this:
as §1

Results on 28 compounds are retold here after US20250163043A1 (TRANSTHERA SCIENCES (NANJING), INC., priority 2021, published 2025).

Where only a bound is given, the exact number is not on record here.

Sequence of CDK1/CycE1 (P06493 whole entry, species assumed): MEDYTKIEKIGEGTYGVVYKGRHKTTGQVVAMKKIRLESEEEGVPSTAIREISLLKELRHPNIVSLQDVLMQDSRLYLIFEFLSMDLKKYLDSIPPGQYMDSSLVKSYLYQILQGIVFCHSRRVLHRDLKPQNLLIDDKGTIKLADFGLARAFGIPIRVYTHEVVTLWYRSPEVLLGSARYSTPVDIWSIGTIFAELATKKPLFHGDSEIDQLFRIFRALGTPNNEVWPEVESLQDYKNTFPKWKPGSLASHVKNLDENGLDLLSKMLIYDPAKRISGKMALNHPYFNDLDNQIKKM
Sequence of CDK1/CycE1 (P24864 whole entry partner, species assumed): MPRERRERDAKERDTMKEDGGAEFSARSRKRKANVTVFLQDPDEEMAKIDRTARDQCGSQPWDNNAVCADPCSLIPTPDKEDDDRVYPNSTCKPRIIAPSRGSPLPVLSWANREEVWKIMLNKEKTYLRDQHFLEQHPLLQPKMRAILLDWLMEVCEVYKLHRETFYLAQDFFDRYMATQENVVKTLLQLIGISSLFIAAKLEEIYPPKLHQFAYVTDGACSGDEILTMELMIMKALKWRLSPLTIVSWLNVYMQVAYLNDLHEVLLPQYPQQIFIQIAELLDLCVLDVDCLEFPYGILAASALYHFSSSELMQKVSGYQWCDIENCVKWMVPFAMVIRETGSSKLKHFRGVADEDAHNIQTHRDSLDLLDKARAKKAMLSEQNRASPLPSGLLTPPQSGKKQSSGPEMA

Turning to `C=Cc1cc2cnc(NC(=O)[C@H]3CCC[C@@H](NC(C)=O)C3)nc2c(NC(C)C)n1` [Compound 10, (1S,3R)-3-acetamido-N-(8-(isopropylamino)-6-vinylpyrido[3,4-d]pyrimidin-2-yl)cyclohexane-1-carboxamide], the IC50 in assay [1] was 46 nM; in assay [2], greater than 1000 nM.
The matching figures for `CC(C)Nc1nc(C#N)cc2cnc(N[C@H]3CCNC3)nc12` [Compound 112, (S)-8-(isopropylamino)-2-(pyrrolidin-3-ylamino)pyrido[3,4-d]pyrimidine-6-carbonitrile]: 17 nM and 400 to 1000 nM.
As to `CC(C)Nc1nc(C#N)cc2cnc(N[C@@H]3CCNC3)nc12` [Compound 113, (R)-8-(isopropylamino)-2-(pyrrolidin-3-ylamino)pyrido[3,4-d]pyrimidine-6-carbonitrile], the values for the IC50 in assay [1] and in assay [2] were 9 nM and 400 to 1000 nM, respectively.
For the compound `CC(C)Nc1nc(C#N)cc2cnc(N[C@@H]3CCCOC3)nc12` [Compound 117, (R)-8-(isopropylamino)-2-((tetrahydro-2H-pyran-3-yl)amino)pyrido[3,4-d]pyrimidine-6-carbonitrile], the IC50 was 6 nM in assay [1] and greater than 1000 nM in assay [2].
Take `CC(C)Nc1nc(C#N)cc2cnc(N[C@H]3CCOC3)nc12` [Compound 118, (S)-8-(isopropylamino)-2-((tetrahydrofuran-3-yl)amino)pyrido[3,4-d]pyrimidine-6-carbonitrile]: the figures for the IC50 in assay [1] and in assay [2] were 12 nM and greater than 1000 nM, respectively.
Take `CC(C)Nc1nc(C#N)cc2cnc(N[C@@H]3CCOC3)nc12` [Compound 119, (R)-8-(isopropylamino)-2-((tetrahydrofuran-3-yl)amino)pyrido[3,4-d]pyrimidine-6-carbonitrile]: the IC50 in assay [1] is 6 nM; in assay [2], greater than 1000 nM.
Consider `CC(C)Nc1nc(C#N)cc2cnc(NC3CCCS(=O)(=O)C3)nc12` (stereo not shown) [Compound 121, 2-((1,1-dioxidotetrahydro-2H-thiopyran-3-yl)amino)-8-(isopropylamino)pyrido[3,4-d]pyrimidine-6-carbonitrile], for which the IC50 in assay [1] was 14 nM; in assay [2], 400 to 1000 nM.
In the case of `CC(C)Nc1nc(C#N)cc2cnc(N[C@H]3CC[C@@H](O)CC3)nc12` [Compound 125, 2-(((1s,4s)-4-hydroxycyclohexyl)amino)-8-(isopropylamino)pyrido[3,4-d]pyrimidine-6-carbonitrile], the IC50 in assay [1] is 9 nM; in assay [2], greater than 1000 nM.
As for `CC(C)Nc1nc(C#N)cc2cnc(NC3CNC3)nc12` [Compound 129, 2-(azetidin-3-ylamino)-8-(isopropylamino)pyrido[3,4-d]pyrimidine-6-carbonitrile], the IC50 is 7 nM in assay [1] and greater than 1000 nM in assay [2].
On to `CC(C)Nc1nc(C#N)cc2cnc(N[C@@H]3CCCNCC3)nc12` [Compound 132, (R)-2-(azepan-4-ylamino)-8-(isopropylamino)pyrido[3,4-d]pyrimidine-6-carbonitrile], for which the results for the IC50 in assay [1] and in assay [2] were 12 nM and 400 to 1000 nM, respectively.
`CC(C)Nc1nc(C#N)cc2cnc(N[C@H]3CC[C@@H](N)CC3)nc12` [Compound 137, 2-(((1s,4s)-4-aminocyclohexyl)amino)-8-(isopropylamino)pyrido[3,4-d]pyrimidine-6-carbonitrile]: the IC50 in assay [1] was 10 nM; in assay [2], greater than 1000 nM.
The matching figures for `CC(C)Nc1nc(C#N)cc2cnc(N[C@@H]3C[C@H]4COC[C@@H](C3)N4)nc12` [Compound 139, 2-(((1R,5S,7r)-3-oxa-9-azabicyclo[3.3.1]nonan-7-yl)amino)-8-(isopropylamino)pyrido[3,4-d]pyrimidine-6-carbonitrile]: 6 nM and greater than 1000 nM.
Take `CC(C)Nc1nc(C#N)cc2cnc(NC3CCCCC3O)cc12` (stereo not shown) [Compound 143, 7-((2-hydroxycyclohexyl)amino)-1-(isopropylamino)-2,6-naphthyridine-3-carbonitrile]: the IC50 is 12 nM in assay [1] and greater than 1000 nM in assay [2].
With `CC(C)Nc1nc(C#N)cc2cnc(NC3CCCC3N)cc12` (stereo not shown) [Compound 146, 7-((2-aminocyclopentyl)amino)-1-(isopropylamino)-2,6-naphthyridine-3-carbonitrile], the values for the IC50 in assay [1] and in assay [2] were 9 nM and greater than 1000 nM, respectively.
Regarding `CC(C)Nc1nc(C#N)cc2cnc(N[C@H]3CCC[C@H]3N)cc12` [Compound 158, 7-(((1S,2R)-2-aminocyclopentyl)amino)-1-(isopropylamino)-2,6-naphthyridine-3-carbonitrile], the IC50 is 3 nM in assay [1] and 400 to 1000 nM in assay [2].
The matching figures for `CC(C)(C)Nc1nc(C#N)cc2cnc(NC(=O)[C@H]3CCCNC3)cc12` [Compound 177, (S)—N-(5-(tert-butylamino)-7-cyano-2,6-naphthyridin-3-yl)piperidine-3-carboxamide]: 19 nM and greater than 1000 nM.
Consider `CC(C)(C)Nc1nc(C#N)cc2cnc(NC(=O)[C@@H]3CCCNC3)cc12` [Compound 178, (R)—N-(5-(tert-butylamino)-7-cyano-2,6-naphthyridin-3-yl)piperidine-3-carboxamide], for which the IC50 in assay [1] is 7 nM; in assay [2], 400 to 1000 nM.
For the compound `N#Cc1cc2cnc(N[C@H]3CCCNC3)cc2c(C2CCCCC2)n1` [Compound 193, (S)-1-cyclohexyl-7-(piperidin-3-ylamino)-2,6-naphthyridine-3-carbonitrile], the IC50 in assay [3] was 398 nM; in assay [4] it was 679 nM; in assay [1], 5 nM; in assay [2], 400 to 1000 nM.
Take `N#Cc1cc2cnc(N[C@H]3CCCNC3)cc2c(C2CC2)n1` [Compound 194, (S)-1-cyclopropyl-7-(piperidin-3-ylamino)-2,6-naphthyridine-3-carbonitrile]: the IC50 was 15 nM in assay [1] and greater than 1000 nM in assay [2].
Regarding `N#Cc1cc2cnc(N[C@H]3CCCNC3)cc2c(OC2CC2)n1` [Compound 197, (S)-1-cyclopropoxy-7-(piperidin-3-ylamino)-2,6-naphthyridine-3-carbonitrile], the IC50 in assay [1] was 14 nM; in assay [2], greater than 1000 nM.
On to `CCNc1nc(C#N)cc2cnc(N[C@H]3C[C@](C)(N)C3)cc12` [Compound 208, 7-(((1r,3r)-3-amino-3-methylcyclobutyl)amino)-1-(ethylamino)-2,6-naphthyridine-3-carbonitrile], for which the IC50 is 7 nM in assay [1] and 400 to 1000 nM in assay [2].
The matching figures for `C[C@]1(N)C[C@H](Nc2cc3c(NC4CC4)nc(C#N)cc3cn2)C1` [Compound 210, 7-((trans)-3-amino-3-methylcyclobutyl)amino-1-(cyclopropylamine)-2,6-naphthyridine-3-carbonitrile]: 12 nM and 400 to 1000 nM.
`CC(C)(C)Nc1nc(C(F)F)cc2cnc(N[C@H]3[C@@H]4CNC[C@@H]43)nc12` [Compound C4, N^2-((1R,5S,6s)-3-azabicyclo[3.1.0]hexan-6-yl)-N^8-(tert-butyl)-6-(difluoromethyl)pyrido[3,4-d]pyrimidine-2,8-diamine]: the IC50 in assay [1] was 9 nM; in assay [2], 400 to 1000 nM.
With `CC(C)Nc1nc(C#N)cc2cnc(N[C@@H]3CCCCNC3)nc12` [Compound C5, (R)-2-(azepan-3-ylamino)-8-(isopropylamino)pyrido[3,4-d]pyrimidine-6-carbonitrile], the IC50 in assay [1] was 50 nM; in assay [2] it was 400 to 1000 nM.
With `CC(C)Nc1nc(C#N)cc2cnc(N[C@]3(C)C[C@@H](O)C3)nc12` [Compound C10, 2-(((1r,3r)-3-hydroxy-1-methylcyclobutyl)amino)-8-(isopropylamino)pyrido[3,4-d]pyrimidine-6-carbonitrile], the IC50 is 8 nM in assay [1] and greater than 1000 nM in assay [2].
The matching figures for `CC(C)(C)Nc1nc(C(N)=O)cc2cnc(N[C@H]3C[C@H](N)C3)nc12` [Compound C19, 2-(((1r,3r)-3-aminocyclobutyl)amino)-8-(tert-butylamino)pyrido[3,4-d]pyrimidine-6-carboxamide]: 10 nM and 400 to 1000 nM.
For `CC(C)Nc1nc(C#N)cc2cnc(N[C@]3(C)C[C@@H](N)C3)nc12` [Compound C27, 2-(((1r,3r)-3-amino-1-methylcyclobutyl)amino)-8-(isopropylamino)pyrido[3,4-d]pyrimidine-6-carbonitrile], the IC50 in assay [1] is 19 nM; in assay [2] it was greater than 1000 nM.
On to `CC(=O)N1CCN([C@H]2C[C@@H](Nc3ncc4cc(C#N)nc(NC(C)C)c4n3)C2)CC1` [Compound C33, 2-(((1s,3s)-3-(4-acetylpiperazin-1-yl)cyclobutyl)amino)-8-(isopropylamino)pyrido[3,4-d]pyrimidine-6-carbonitrile], for which the IC50 is 19 nM in assay [1] and greater than 1000 nM in assay [2].
